Assay results published in patent publication US20140308294A1, “Anti-IL-1R1 Inhibitors For Use in Cancer” (MERCK PATENT GMBH, priority 2011, published 2014).

Tests used:
[1] = system: primary CRC CSC-derived xenograft tumors; assay: CSC-xenograft tumor growth, CRC model in NOD/SCID mice; type: in vivo, mouse; conditions: 5 or 10 mg daily s.c., 76 days
Description: (§1) CSC were FACS-enriched from primary tumor-derived NSCLC and CRC cell line cultures on the basis ALDH activity as determined by the Aldefluor assay. 10^4 cells/mouse were transplanted s.c. in NOD/SCID mice together with Matrigel. A Loading dose of 5 μg/mL Kineret (recombinant […], Amgen) was applied to the Matrigel and subsequent daily treatment s.c. with either 5 or 10 mg Kineret was performed beginning on day 1 post transplantation. Tumor volumes were monitored weekly and three mice from each group were sacrificed at day 76 for the CRC model (A.) and at day 91 for the NSCLC model (B.) for further analysis. For the remaining animals Kineret treatment was stopped and tumor progression was continually monitored. When tumors reached >2000 mm^3 mice were sacrificed. At time of sacrifice serum was collected along for cytokine analysis. A. Tumor growth curves in the CRC tumor model study and B. growth curves in the NSLCL model study. Curves represent mean tumor volume in mm3 from 10 mice/group; error bars are SEM The data shown for each model is representative of n=2 similar experiments.
(§2) Human cell cultures derived from primary tumors obtained from a CRC (FIG. 12A) and a NSCLC (FIG. 12B) patient were sorted for the Aldeflour-positive population using fluorescence activated cell sorting (FACS). […]
(§3) Tumor volume was monitored weekly for 76 days in the CRC model and for 91 days in the NSCLC model.

[2] = system: primary NSCLC CSC-derived xenograft tumors; assay: CSC-xenograft tumor growth, NSCLC model in NOD/SCID mice; type: in vivo, mouse; conditions: 5 or 10 mg daily s.c., 91 days
Description: as §1, §2, §3

[3] = system: hIL8; assay: Serum hIL8 ELISA in NOD/SCID mice with CSC-xenograft tumors; type: in vivo, mouse; conditions: CRC day 76 and NSCLC day 91, vs vehicle
Description: (§4) This analysis was performed on serum collected from the tumor model studies described in FIG. 18. Serum analysis was performed using high-sensitivity ELISA assay kits obtained from R&D systems. A.C. Serum from 3 mice at day 76 (CRC) (blue) and at day 91 (NSCLC) (red) was analyzed for hIL8 and hVEGF serum levels. Results are shown as bar graphs representing the mean cytokine concentration in pg/mL+/−SD from n=3 mice/group.
(§5) Three mice from each study group were sacrificed at day 76 (CRC) or day 91 (NSCLC). The tumors were excised, dissociated into single cells, and viably cryopreserved. Serum was also collected for cytokine detection. For the remaining mice Kineret treatment was stopped and the mice were further monitored for tumor growth. When tumors reached ethical tumor-burden limits the mice were sacrificed and tumor cells and serum were collected. […] From all sacrificed mice we also collected and cryopreserved bone marrow cells from the femur and tibial bones for possible analyses.

[4] = system: hVEGF; assay: Serum hVEGF ELISA in NOD/SCID mice with CSC-xenograft tumors; type: in vivo, mouse; conditions: CRC day 76 and NSCLC day 91, vs vehicle
Description: as §4, §5

[5] = Tolerability in NOD/SCID mice of the xenograft studies; type: in vivo; conditions: 5 and 10 mg daily s.c.
Source text: Human cell cultures derived from primary tumors obtained from a CRC (FIG. 12A) and a NSCLC (FIG. 12B) patient were sorted for the Aldeflour-positive population using fluorescence activated cell sorting (FACS). Aldefluor is a marker of high aldehyde-dehydrogenase activity, which is associated with both normal stem cell and CSC phenotypes. The sorted aldefluor-positive (AF+) cells were suspended in Matrigel and injected subcutaneously at a very low cell number (2×10^4 cells/mouse) into NOD/SCID immune-deficient mice. The matrigel suspensions contained a Kineret loading dose of 5 μg/mL which corresponds to reported serum levels of Kineret after daily s.c. dosing. Starting 1 day after inoculation of the AF+ cells, mice were treated daily with 5 mg or 10 mg of Kineret (purchased from Biovitrum) or the drug vehicle. The administration route was s.c. as is standard for Kineret in the clinic.
as §3

[6] = in vivo, sc; cited from earlier work

Kineret: human IL1R-antagonist (IL1RA) marketed under the trade name Kineret, Amgen; approved for rheumatoid arthritis
inhibition of tumor growth [1]: strong inhibition at both the 5 and 10 mg doses | inhibition of tumor growth [2]: response was only achieved with the higher dose of 10 mg/kg | hIL-8 levels in mouse serum [3]: reduced to undetectable levels | hVEGF levels in mouse serum [4]: did not alter | tolerability [5]: well tolerated | reported serum levels after daily s.c. dosing [6]: 5 µg/mL
